US20260274799A1, “HETEROCYCLIC DERIVATIVES, COMPOSITIONS AND USES THEREOF” (DANATLAS PHARMACEUTICALS CO., LTD., priority 2023, published 2026)
Read-outs that look alike come from different tables or passages of the source.

Target: T1, PPARγ-LBD (UniProt ID: P37231-2) (Homo sapiens, UniProt P37231)
T1 construct: PPARγ-LBD (UniProt ID: P37231-2) was expressed and purified in insect system; made in house
T1 sequence (P37231 238-503 limits assumed): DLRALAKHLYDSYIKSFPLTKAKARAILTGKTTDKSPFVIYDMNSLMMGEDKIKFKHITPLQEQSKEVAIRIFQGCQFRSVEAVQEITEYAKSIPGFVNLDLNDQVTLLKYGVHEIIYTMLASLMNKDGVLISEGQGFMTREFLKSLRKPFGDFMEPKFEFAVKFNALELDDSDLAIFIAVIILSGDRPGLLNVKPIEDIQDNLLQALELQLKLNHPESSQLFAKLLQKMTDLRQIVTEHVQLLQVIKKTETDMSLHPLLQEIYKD
Test: PPARγ-SMRT recruitment assay (TR-FRET)
Format: biochemical
Settings: for Emax: 1 h, read-out: Top %; for EC50: TR-FRET, SMRT peptide recruitment to PPARγ-LBD, 120 min pre-incubation
Protocol: PPARγ TR-FRET assay was initiated to evaluate potential activatory effect of the compounds of the present disclosure for SMRT recruitment to PPARγ protein. PPARγ-LBD (UniProt ID: P37231-2) was expressed and purified in insect system and stored at −80° C. in aliquots. Biotinylated SMRT peptide was synthesized (Biotin-[…]). 5 μL protein solution mixture consisting of 10 nM PPARγ-LBD and 2 nM Anti-His Eu (Cisbio, 61HISKLA) in assay buffer (25 mM HEPES pH7.4, 25 mM KCl, 1 mM EDTA, 0.01% BSA, 0.01% Tween-20, 1 mM TCEP) was added to 384-well plates containing duplicate 10-point dose response titration of compounds in 5 μL assay buffer (1% f.c. DMSO(v/v)). After 120 min pre-incubation at room temperature, 5 μL peptide solution mixture consisting of 50 nM Biotin-SMRT peptide and 25 nM Streptavidin-XL665 (Cisbio, 610SAXLA) added to plates. Plates were incubated for 60 min. and read in CLARIOstar Plus plate reader with Ex/Em 620 nm/[…]. Average TR-FRET ratio of high control (Wells with 10 uM control compound) was calculated as High Control (HC). Average TR-FRET ratio of low control (Wells with 1% DMSO) was calculated as Low control (LC). For one compound, top % is the max value of % Activation.
EC50 values were determined by fitting the data to the standard 4 parameters with Hill Slope using GraphPad Prism software. […] ND: No Determine.

[1] = max value of % Activation, high control 10 uM control compound, low control 1% DMSO

Structure (SMILES)	Emax [1]	EC50	Emax
CS(=O)(=O)c1ccc(C#N)cc1-c1cc(=O)c2c(F)c(C#Cc3ccccc3F)c(F)cc2[nH]1 [Example 51, 3-(5,7-Difluoro-6-((2-fluorophenyl)ethynyl)-4-oxo-1,4-dihydroquinolin-2-yl)-4-(methylsulfonyl)benzonitrile]	447%	< 100 nM	–
CS(=O)(=O)c1ccc(C#N)cc1-c1cc(=O)c2c(F)c(C#Cc3ccccc3OC(F)(F)F)c(F)cc2[nH]1 [Example 36, 3-(5,7-Difluoro-4-oxo-6-((2-(trifluoromethoxy)phenyl)ethynyl)-1,4-dihydroquinolin-2-yl)-4-(methylsulfonyl)benzonitrile]	322%	< 100 nM	–
Cc1ccc(S(C)(=O)=O)c(-c2cc(=O)c3c(F)c(CCC4CCOCC4)c(F)cc3[nH]2)c1 [Example 56, 5,7-Difluoro-2-(5-methyl-2-(methylsulfonyl)phenyl)-6-(2-(tetrahydro-2H-pyran-4-yl)ethyl)quinolin-4(1H)-one]	–	100 to 1000 nM	–
CS(=O)(=O)c1ccc(C#N)cc1-c1cc(=O)c2c(F)c(OCc3ccccc3)c(F)cc2[nH]1 [Example 18, 3-(6-(Benzyloxy)-5,7-difluoro-4-oxo-1,4-dihydroquinolin-2-yl)-4-(methylsulfonyl)benzonitrile]	–	< 100 nM	–
Cc1ccc(C#Cc2c(F)cc3[nH]c(-c4cc(C#N)ccc4S(C)(=O)=O)cc(=O)c3c2F)cc1 [Example 39, 3-(5,7-Difluoro-4-oxo-6-(p-tolylethynyl)-1,4-dihydroquinolin-2-yl)-4-(methylsulfonyl)benzonitrile]	406%	< 100 nM	–
Cc1noc(C)c1C#Cc1c(F)cc2[nH]c(-c3cc(C#N)ccc3S(C)(=O)=O)cc(=O)c2c1F [Example 35, 3-(6-((3,5-Dimethylisoxazol-4-yl)ethynyl)-5,7-difluoro-4-oxo-1,4-dihydroquinolin-2-yl)-4-(methylsulfonyl)benzonitrile]	243%	< 100 nM	–
COCCC#Cc1c(F)cc2[nH]c(-c3cc(C#N)ccc3S(C)(=O)=O)cc(=O)c2c1F [Example 49, 3-(5,7-Difluoro-6-(4-methoxybut-1-yn-1-yl)-4-oxo-1,4-dihydroquinolin-2-yl)-4-(methylsulfonyl)benzonitrile]	–	< 100 nM	–
CC(C)(C)C#Cc1c(F)cc2[nH]c(-c3cc(C#N)ccc3S(C)(=O)=O)cc(=O)c2c1F [Example 10, 3-(6-(3,3-Dimethylbut-1-yn-1-yl)-5,7-difluoro-4-oxo-1,4-dihydroquinolin-2-yl)-4-(methylsulfonyl)benzonitrile]	–	< 100 nM	–
CC#Cc1c(F)cc2[nH]c(-c3cc(C#N)ccc3S(C)(=O)=O)cc(=O)c2c1F [Example 19, 3-(5,7-Difluoro-4-oxo-6-(prop-1-yn-1-yl)-1,4-dihydroquinolin-2-yl)-4-(methylsulfonyl)benzonitrile]	208%	< 100 nM	–
Cn1nnnc1Sc1ccc(C#N)cc1-c1cc(=O)c2c(F)cc(F)cc2[nH]1 [Example 54, 3-(5,7-Difluoro-4-oxo-1,4-dihydroquinolin-2-yl)-4-((1-methyl-1H-tetrazol-5-yl)thio)benzonitrile]	–	> 1000 nM	–
CC(C)C#Cc1c(F)cc2[nH]c(-c3cc(C#N)ccc3S(C)(=O)=O)cc(=O)c2c1F [Example 21, 3-(5,7-Difluoro-6-(3-methylbut-1-yn-1-yl)-4-oxo-1,4-dihydroquinolin-2-yl)-4-(methylsulfonyl)benzonitrile]	–	< 100 nM	–
CCS(=O)(=O)c1ccc(C#N)cc1-c1cc(=O)c2c(F)c(C#CC3COC3)c(F)cc2[nH]1 [Example 46, 3-(5,7-Difluoro-6-(oxetan-3-ylethynyl)-4-oxo-1,4-dihydroquinolin-2-yl)-4-(ethylsulfonyl)benzonitrile]	174%	< 100 nM	–
CS(=O)(=O)c1ccc(C#N)cc1-c1cc(=O)c2c(F)c(C#CCCO)c(F)cc2[nH]1 [Example 6, 3-(5,7-Difluoro-6-(4-hydroxybut-1-yn-1-yl)-4-oxo-1,4-dihydroquinolin-2-yl)-4-(methylsulfonyl)benzonitrile]	266%	< 100 nM	–
CS(=O)(=O)c1ccc(C#N)cc1-c1cc(=O)c2c(F)c(C#CC3CCOCC3)c(F)cc2[nH]1 [Example 52, 3-(5,7-Difluoro-4-oxo-6-((tetrahydro-2H-pyran-4-yl)ethynyl)-1,4-dihydroquinolin-2-yl)-4-(methylsulfonyl)benzonitrile]	–	< 100 nM	–
COc1cc(-c2cc(C#N)ccc2S(C)(=O)=O)nc2cc(F)c(C#CC(C)(C)F)c(F)c12 [Example 55, 3-(5,7-Difluoro-6-(3-fluoro-3-methylbut-1-yn-1-yl)-4-methoxyquinolin-2-yl)-4-(methylsulfonyl)benzonitrile]	–	> 1000 nM	–
CC1(C#Cc2c(F)cc3[nH]c(-c4cc(C#N)ccc4S(C)(=O)=O)cc(=O)c3c2F)COC1 [Example 45, 3-(5,7-Difluoro-6-((3-methyloxetan-3-yl)ethynyl)-4-oxo-1,4-dihydroquinolin-2-yl)-4-(methylsulfonyl)benzonitrile]	249%	< 100 nM	–
CS(=O)(=O)c1ccc(C#N)cc1-c1cc(=O)c2c(F)c(C#Cc3ccncc3OC(F)F)c(F)cc2[nH]1 [Example 47, 3-(6-((3-(Difluoromethoxy)pyridin-4-yl)ethynyl)-5,7-difluoro-4-oxo-1,4-dihydroquinolin-2-yl)-4-(methylsulfonyl)benzonitrile]	–	< 100 nM	376%
CS(=O)(=O)c1ccc(C#N)cc1-c1cc(=O)c2c(F)c(C#CC3COC3)c(F)cc2[nH]1 [Example 24, 3-(5,7-Difluoro-6-(oxetan-3-ylethynyl)-4-oxo-1,4-dihydroquinolin-2-yl)-4-(methylsulfonyl)benzonitrile]	197%	< 100 nM	–
COc1ccccc1C#Cc1c(F)cc2[nH]c(-c3cc(C#N)ccc3S(C)(=O)=O)cc(=O)c2c1F [Example 30, 3-(5,7-Difluoro-6-((2-methoxyphenyl)ethynyl)-4-oxo-1,4-dihydroquinolin-2-yl)-4-(methylsulfonyl)benzonitrile]	283%	< 100 nM	–
Cc1cncc(C)c1C#Cc1c(F)cc2[nH]c(-c3cc(C#N)ccc3S(C)(=O)=O)cc(=O)c2c1F [Example 32, 3-(6-((3,5-Dimethylpyridin-4-yl)ethynyl)-5,7-difluoro-4-oxo-1,4-dihydroquinolin-2-yl)-4-(methylsulfonyl)benzonitrile]	343%	< 100 nM	–
CS(=O)(=O)c1ccc(C#N)cc1-c1cc(=O)c2c(F)c(/C=C/c3ccccc3)c(F)cc2[nH]1 [Example 53, (E)-3-(5,7-Difluoro-4-oxo-6-styryl-1,4-dihydroquinolin-2-yl)-4-(methylsulfonyl)benzonitrile]	650%	< 100 nM	–
CS(=O)(=O)c1ccc(C#N)cc1-c1cc(=O)c2c(F)c(C#Cc3ccccc3Cl)c(F)cc2[nH]1 [Example 33, 3-(6-((2-Chlorophenyl)ethynyl)-5,7-difluoro-4-oxo-1,4-dihydroquinolin-2-yl)-4-(methylsulfonyl)benzonitrile]	502%	< 100 nM	–
CS(=O)(=O)c1ccc(C#N)cc1-c1cc(=O)c2c(F)c(C#CC3CC3)c(F)cc2[nH]1 [Example 9, 3-(6-(Cyclopropylethynyl)-5,7-difluoro-4-oxo-1,4-dihydroquinolin-2-yl)-4-(methylsulfonyl)benzonitrile]	359%	< 100 nM	–
